Experimental data as given in US12268694B2, “Combination pharmaceutical agents as RSV inhibitors” (Enanta Pharmaceuticals, Inc., priority 2017, dated 2025).
Read-outs that look alike come from different tables or passages of the source.

System: genotype A, "Long" strain RSV
Test: RSV-A assay: CPE protection in HEp-2 cells, ATPlite readout
Format: cell-based, human respiratory syncytial virus
Summary of the method: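 HEp-2 cells (8,000/well) with 2-fold compound dilutions in duplicate, infected with Long-strain RSV at MOI 0.1 and incubated 5 days. Cell ATP measured by ATPlite luminescence to give EC50; uninfected parallel plate gives CC50.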

[1] = human respiratory syncytial virus, HEp-2, read-out: Human RSV-A (“Long” strain) EC50
[2] = HEp-2 cells, RSV-A Long strain, ATPlite readout, read-out: Human RSV-A (“Long” strain) EC50

Row | Compound | EC50 [1] [nM] | EC50 [2] [nM]
1 | CCn1cc(-c2nnc(N[C@H]3N=C(c4ccccc4)c4ccccc4NC3=O)o2)c(N2CCOCC2)n1 [Example 401] | < 400 | 
2 | COCCn1cc(-c2nnc(N[C@H]3N=C(c4ccccc4)c4ccccc4NC3=O)o2)c(N2CCOCC2)n1 [Example 402] | < 400 | 
3 | O=C1Nc2ccccc2C(c2ccccc2)=N[C@@H]1Nc1nnc(-c2oc3ncccc3c2N2CCOCC2)o1 [Example 404] | < 400 | 
4 | O=C1Nc2ccccc2C(c2ccccc2)=N[C@@H]1Nc1nnc(-c2nc(C3CCCCC3)sc2N2CCOCC2)o1 [Example 405] | < 400 | 
5 | C#Cc1nc(-c2nnc(N[C@H]3N=C(c4ccccc4)c4ccccc4NC3=O)o2)c(N2CCOCC2)s1 [Example 406] | < 400 | 
6 | COc1ccc2nccc(-c3nnc(N[C@H]4N=C(c5ccccc5)c5ccccc5NC4=O)o3)c2c1 [Example 408] | > 800 | 
7 | COCc1ccc2nccc(-c3nnc(N[C@H]4N=C(c5ccccc5)c5ccccc5NC4=O)o3)c2c1 [Example 409] | > 800 | 
8 | COc1ccn2ncc(-c3nnc(N[C@H]4N=C(c5ccccc5)c5ccccc5NC4=O)o3)c2c1 [Example 410] | > 800 | 
9 | COCCc1cccn2ncc(-c3nnc(N[C@H]4N=C(c5ccccc5)c5ccccc5NC4=O)o3)c12 [Example 411] | > 800 | 
10 | COCC(C)(C)Nc1cc(C(F)(F)F)cnc1-c1nnc(N[C@H]2N=C(c3ccccc3)c3ccccc3NC2=O)o1 [Example 414] | > 800 | 
11 | COCC1(Nc2cc(C(F)(F)F)cnc2-c2nnc(N[C@H]3N=C(c4ccccc4)c4ccccc4NC3=O)o2)CC1 [Example 415] | > 800 | 
12 | COC(C)(C)CNc1cc(C(F)(F)F)cnc1-c1nnc(N[C@H]2N=C(c3ccccc3)c3ccccc3NC2=O)o1 [Example 416] | > 800 | 
13 | O=C1Nc2ccccc2C(c2ccccc2)=N[C@@H]1Nc1nnc(-c2ncc(C(F)(F)F)cc2N[C@H]2CC[C@H]2O)o1 [Example 417] |  | > 800
14 | O=C1Nc2ccccc2C(c2ccccc2)=N[C@@H]1Nc1nnc(-c2ncc(C(F)(F)F)cc2N[C@@H]2CC[C@@H]2O)o1 [Example 418] |  | > 800
15 | O=C1Nc2ccccc2C(c2ccccc2)=N[C@@H]1Nc1nnc(-c2ncc(C(F)(F)F)cc2NC[C@@H]2CCCO2)o1 [Example 419] | 400 to 800 | 
16 | O=C1Nc2ccccc2C(c2ccccc2)=N[C@@H]1Nc1nnc(-c2ncc(C(F)(F)F)cc2NC[C@H]2CCCO2)o1 [Example 420] | < 400 | 
17 | O=C1Nc2ccccc2C(c2ccccc2)=N[C@@H]1Nc1nnc(-c2ncc(C(F)(F)F)cc2NCc2ccco2)o1 [Example 421] | > 800 | 
18 | O=C1Nc2ccccc2C(c2ccccc2)=N[C@@H]1Nc1nnc(-c2ncc(C(F)(F)F)cc2N[C@H]2CCC[C@H]2O)o1 [Example 422] | 400 to 800 | 
19 | O=C1Nc2ccccc2C(c2ccccc2)=N[C@@H]1Nc1nnc(-c2ncc(C(F)(F)F)cc2N[C@@H]2CCC[C@@H]2O)o1 [Example 423] | 400 to 800 | 
20 | CC1(Nc2cc(C(F)(F)F)cnc2-c2nnc(N[C@H]3N=C(c4ccccc4)c4ccccc4NC3=O)o2)CCOC1 (stereo partly shown) [Example 424] | > 800 | 
21 | O=C1Nc2ccccc2C(c2ccccc2)=N[C@@H]1Nc1nnc(-c2cn(-c3cccnc3)nc2N2CCOCC2)o1 [Example 425] | < 400 | 
22 | COCCn1ccc2cccc(-c3nnc(N[C@H]4N=C(c5ccccc5)c5ccccc5NC4=O)o3)c21 [Example 426] | > 800 | 
23 | O=C1Nc2ccccc2C(c2ccccc2)=N[C@@H]1Nc1nnc(-c2nc(-c3ccccc3F)sc2N2CCOCC2)o1 [Example 427] | < 400 | 

Row | Compound | EC50 [1] [nM] | EC50 [2] [nM]
24 | O=C1Nc2ccccc2C(c2ccccc2)=N[C@@H]1Nc1nnc(-c2nc(-c3ccc(F)cc3)sc2N2CCOCC2)o1 [Example 428] | < 400 | 
25 | O=C1Nc2ccccc2C(c2ccccc2)=N[C@@H]1Nc1nnc(-c2cn(C3CCC3)nc2N2CCOCC2)o1 [Example 430] | < 400 | 
26 | O=C1Nc2ccccc2C(c2ccccc2)=N[C@@H]1Nc1nnc(-c2cn(-c3ccccn3)nc2N2CCOCC2)o1 [Example 431] | < 400 | 
27 | Cc1cc(-c2nnc(N[C@H]3N=C(c4ccccc4)c4ccccc4NC3=O)o2)n(C2CCOCC2)n1 [Example 432] | > 800 | 
28 | O=C1Nc2ccccc2C(c2ccccc2)=N[C@@H]1Nc1nnc(-c2nc3ccccc3nc2N2CCOCC2)o1 [Example 433] | < 400 | 
29 | O=C1Nc2ccccc2C(c2ccccc2)=N[C@@H]1Nc1nnc(-c2cc3ccccc3nc2N2CCOCC2)o1 [Example 434] | < 400 | 
30 | N#Cc1ccc2nccc(-c3nnc(N[C@H]4N=C(c5ccccc5)c5ccccc5NC4=O)o3)c2c1 [Example 435] | > 800 | 
31 | CO[C@@H]1COC[C@H]1Nc1cc(C(F)(F)F)cnc1-c1nnc(N[C@H]2N=C(c3ccccc3)c3ccccc3NC2=O)o1 [Example 436] | < 400 | 
32 | CC(C)(O)c1nc(-c2nnc(N[C@H]3N=C(c4ccccc4)c4ccccc4NC3=O)o2)c(N2CCOCC2)s1 [Example 437] | < 400 | 
33 | COCCN1CCCn2ncc(-c3nnc(N[C@H]4N=C(c5ccccc5)c5ccccc5NC4=O)o3)c21 [Example 438] | 400 to 800 | 
34 | COC1C2CN(c3cc(C(F)(F)F)cnc3-c3nnc(N[C@H]4N=C(c5ccccc5)c5ccccc5NC4=O)o3)CC21 (stereo partly shown) [Example 439] | > 800 | 
35 | O=C1Nc2ccccc2C(c2ccccc2)=N[C@@H]1Nc1nnc(-c2cn(-c3ccc(C(F)(F)F)cn3)nc2N2CCOCC2)o1 [Example 440] | 400 to 800 | 
36 | N#Cc1ccn2ncc(-c3nnc(N[C@H]4N=C(c5ccccc5)c5ccccc5NC4=O)o3)c2c1 [Example 441] | > 800 | 
37 | O=C1Nc2ccccc2C(c2ccccc2)=N[C@@H]1Nc1ncc(-c2ncc(C(F)(F)F)cc2N2CCOCC2)o1 [Example 442] |  | < 400
38 | O=C1Nc2ccccc2C(c2ccccc2)=N[C@@H]1Nc1nnc(-c2cn(-c3ccc(C(F)(F)F)nc3)nc2N2CCOCC2)o1 [Example 444] |  | < 400
39 | O=C1Nc2ccccc2C(c2ccccc2)=N[C@@H]1Nc1nnc(-c2cn(CC3CC3)nc2N2CCOCC2)o1 [Example 446] |  | < 400
40 | O=C1Nc2ccccc2C(c2ccccc2)=N[C@@H]1Nc1nnc(-c2cn(CC3CC3)nc2N2CCOCC2)o1 [Example 447] |  | 400 to 800
41 | O=C1Nc2ccccc2C(c2ccccc2)=N[C@@H]1Nc1nnc(-c2cn(-c3ccc(F)cn3)nc2N2CCOCC2)o1 [Example 448] | < 400 | 
42 | COCc1ccn2ncc(-c3nnc(N[C@H]4N=C(c5ccccc5)c5ccccc5NC4=O)o3)c2c1 [Example 449] | > 800 | 
43 | O=C1Nc2ccccc2C(c2ccccc2)=NC1Nc1nnc(-c2ncc(C(F)(F)F)cc2CCO)o1 (stereo not shown) [Example 450] | > 800 | 
44 | COC[C@@H](C)Nc1sc(C(F)(F)F)nc1-c1nnc(N[C@H]2N=C(c3ccccc3)c3ccccc3NC2=O)o1 [Example 451] | 400 to 800 | 
45 | CO[C@@H](C)CNc1sc(C(F)(F)F)nc1-c1nnc(N[C@H]2N=C(c3ccccc3)c3ccccc3NC2=O)o1 [Example 452] | < 400 | 
46 | O=C1Nc2ccccc2C(c2ccccc2)=N[C@@H]1Nc1nnc(-c2nc(C(F)(F)F)sc2C2=CCOCC2)o1 [Example 453] | < 400 | 

Row | Compound | EC50 [1] [nM] | EC50 [2] [nM]
47 | O=C1Nc2ccccc2C(c2ccccc2)=N[C@@H]1Nc1nnc(-c2nc(C(F)(F)C(F)(F)F)sc2N2CCOCC2)o1 [Example 454] | < 400 | 
48 | O=C1Nc2ccccc2C(c2ccccc2)=N[C@@H]1Nc1nnc(-c2nc(C3(O)CCC3)sc2N2CCOCC2)o1 [Example 455] | < 400 | 
49 | COC[C@H]1CCCN1c1sc(C(F)(F)F)nc1-c1nnc(N[C@H]2N=C(c3ccccc3)c3ccccc3NC2=O)o1 [Example 456] | > 800 | 
50 | COC[C@@H]1CCCN1c1sc(C(F)(F)F)nc1-c1nnc(N[C@H]2N=C(c3ccccc3)c3ccccc3NC2=O)o1 [Example 457] | > 800 | 
51 | CC(C)(c1nc(-c2nnc(N[C@H]3N=C(c4ccccc4)c4ccccc4NC3=O)o2)c(N2CCOCC2)s1)N1CCOCC1 [Example 459] | < 400 | 
52 | O=C1Nc2ccccc2C(c2ccccc2)=N[C@@H]1Nc1nnc(-c2nc(C3(C(F)(F)F)CC3)sc2N2CCOCC2)o1 [Example 460] | < 400 | 
53 | O=C1Nc2ccccc2C(c2ccccc2)=NC1Nc1nnc(-c2ncc(C(F)F)cc2N2CCOCC2)o1 (stereo not shown) [Example 461] | < 400 | 
54 | O=C1Nc2ccccc2C(c2ccccc2)=NC1Nc1cc(-c2ccccc2)cnn1 (stereo not shown) [Example 462] | > 800 | 
55 | O=C1Nc2ccccc2C(c2ccccc2)=NC1Nc1cc(N2CCOCC2)cnn1 (stereo not shown) [Example 463] | > 800 | 
56 | O=C1Nc2ccccc2C(c2ccccc2)=N[C@@H]1Nc1nnc(-c2ncc(C(F)(F)F)cc2N[C@@H]2CCOC2)o1 [Example 464] | < 400 | 
57 | Cc1nsc(N2CCOCC2)c1-c1nnc(N[C@H]2N=C(c3ccccc3)c3ccccc3NC2=O)o1 [Example 465] | 400 to 800 | 
58 | O=C1Nc2ccccc2C(c2ccccc2)=N[C@@H]1Nc1nnc(-c2ncc(C(F)(F)F)cc2N2CCOc3ccccc32)o1 [Example 468] | > 800 | 
59 | O=C1Nc2ccccc2C(c2ccccc2)=N[C@@H]1Nc1nnc(-c2ncc(C(F)(F)F)cc2NC2COC2)o1 [Example 469] | < 400 | 
60 | O=C1Nc2ccccc2C(c2ccccc2)=N[C@@H]1Nc1nnc(-c2ncc(C(F)(F)F)cc2N[C@H]2CCOC2)o1 [Example 470] | > 800 | 
61 | COCCNc1sccc1-c1nnc(N[C@H]2N=C(c3ccccc3)c3ccccc3NC2=O)o1 [Example 472] | > 800 | 
62 | COCCNc1sc(C(F)(F)F)nc1-c1nnc(N[C@H]2N=C(c3ccccc3)c3ccccc3NC2=O)o1 [Example 473] | < 400 | 
63 | O=C1Nc2ccccc2C(c2ccccc2)=N[C@@H]1Nc1nnc(-c2nc(C(F)(F)F)sc2N[C@@H]2CCOC2)o1 [Example 474] | < 400 | 
64 | O=C1Nc2ccccc2C(c2ccccc2)=N[C@@H]1Nc1nnc(-c2nc(C(F)(F)F)sc2NCC2COC2)o1 [Example 475] | 400 to 800 | 
65 | O=C1Nc2ccccc2C(c2ccccc2)=N[C@@H]1Nc1nnc(-c2oc3cc(F)ccc3c2N2CCOCC2)o1 [Example 476] | 400 to 800 | 
66 | O=C1Nc2ccccc2C(c2ccccc2)=N[C@@H]1Nc1nnc(-c2oc3cccc(F)c3c2N2CCOCC2)o1 [Example 477] | < 400 | 
67 | CC1(c2nc(-c3nnc(N[C@H]4N=C(c5ccccc5)c5ccccc5NC4=O)o3)c(N3CCOCC3)s2)CCC1 [Example 478] | < 400 | 
